# System: NHBE cells
# Assay: Biolog metabolic array: substrate use by NHBE cells with or without CA09 infection
# Format: cell-based, human
# Settings: for Substrate use, 590 nm absorbance normalized to zero hour, 0 hr: Biolog PMM2, 0 hr; for Substrate use, 590 nm absorbance normalized to zero hour, 1 hr: Biolog PMM2, 1 hr; for Substrate use, 590 nm absorbance normalized to zero hour, 5 hr: Biolog PMM2, 5 hr; for Substrate use, 590 nm absorbance normalized to zero hour, 7 hr: Biolog PMM2, 7 hr
# [1] = Control (uninfected) NHBE cells
# [2] = Virus (CA09-infected NHBE cells, MOI 1)
# [3] = Virus: CA09-infected NHBE cells, MOI 1, Biolog PMM2
# [4] = Virus (CA09-infected, MOI 1) NHBE cells
Compound,"590 nm absorbance normalized to zero hour (substrate use), 1 hr [1]","590 nm absorbance normalized to zero hour (substrate use), 2 hr [1]","590 nm absorbance normalized to zero hour (substrate use), 3 hr [1]","590 nm absorbance normalized to zero hour (substrate use), 4 hr [1]","590 nm absorbance normalized to zero hour (substrate use), 6 hr [1]","590 nm absorbance normalized to zero hour (substrate use), 8 hr [1]","590 nm absorbance normalized to zero hour (substrate use), 9 hr [1]","590 nm absorbance normalized to zero hour (substrate use), 10 hr [1]","590 nm absorbance normalized to zero hour (substrate use), 11 hr [1]","Substrate use, 590 nm absorbance normalized to zero hour, 1 hr [1]","Substrate use, 590 nm absorbance normalized to zero hour, 5 hr [1]","Substrate use, 590 nm absorbance normalized to zero hour, 7 hr [1]","590 nm absorbance normalized to zero hour (substrate use), 1 hr [3]","590 nm absorbance normalized to zero hour (substrate use), 2 hr [3]","590 nm absorbance normalized to zero hour (substrate use), 3 hr [3]","590 nm absorbance normalized to zero hour (substrate use), 4 hr [3]","590 nm absorbance normalized to zero hour (substrate use), 5 hr [3]","590 nm absorbance normalized to zero hour (substrate use), 6 hr [3]","590 nm absorbance normalized to zero hour (substrate use), 7 hr [3]","590 nm absorbance normalized to zero hour (substrate use), 8 hr [3]",also measured
OC[C@@H]1OC(O)[C@@H](O)[C@H](O)[C@H]1O (stereo partly drawn) [L-Glucose],1.65,2.20,2.64,2.83,3.82,3.55,3.76,3.89,4.25,1.65,3.52,3.51,0.29,0.39,0.45,0.49,0.57,0.61,0.64,0.68,"590 nm absorbance normalized to zero hour (substrate use), 0 hr [1]: 1.00; Substrate use, 590 nm absorbance normalized to zero hour, 0 hr [1]: 1.00; 590 nm absorbance normalized to zero hour (substrate use), 0 hr [2]: 1.00; 590 nm absorbance normalized to zero hour (substrate use), 1 hr [2]: 0.29; 590 nm absorbance normalized to zero hour (substrate use), 2 hr [2]: 0.39; 590 nm absorbance normalized to zero hour (substrate use), 3 hr [2]: 0.45; 590 nm absorbance normalized to zero hour (substrate use), 4 hr [2]: 0.49; 590 nm absorbance normalized to zero hour (substrate use), 5 hr [2]: 0.57; 590 nm absorbance normalized to zero hour (substrate use), 6 hr [2]: 0.61; 590 nm absorbance normalized to zero hour (substrate use), 7 hr [2]: 0.64; 590 nm absorbance normalized to zero hour (substrate use), 8 hr [2]: 0.68; 590 nm absorbance normalized to zero hour (substrate use), 9 hr [2]: 0.76; 590 nm absorbance normalized to zero hour (substrate use), 10 hr [2]: 0.76; 590 nm absorbance normalized to zero hour (substrate use), 11 hr [2]: 0.86; 590 nm absorbance normalized to zero hour (substrate use), 0 hr [3]: 1.00; 590 nm absorbance normalized to zero hour (substrate use), 9 hr [3]: 0.76; 590 nm absorbance normalized to zero hour (substrate use), 10 hr [3]: 0.76; 590 nm absorbance normalized to zero hour (substrate use), 11 hr [3]: 0.86"
CC(O)C(=O)O [L-Lactic Acid (DL)],1.56,2.01,2.57,2.66,1.75,3.21,3.56,3.63,4.70,1.56,3.09,2.97,1.33,1.66,2.04,2.11,2.48,2.68,2.86,3.04,"590 nm absorbance normalized to zero hour (substrate use), 0 hr [1]: 1.00; Substrate use, 590 nm absorbance normalized to zero hour, 0 hr [1]: 1.00; 590 nm absorbance normalized to zero hour (substrate use), 0 hr [4]: 1.00; 590 nm absorbance normalized to zero hour (substrate use), 1 hr [4]: 1.33; 590 nm absorbance normalized to zero hour (substrate use), 2 hr [4]: 1.66; 590 nm absorbance normalized to zero hour (substrate use), 3 hr [4]: 2.04; 590 nm absorbance normalized to zero hour (substrate use), 4 hr [4]: 2.11; 590 nm absorbance normalized to zero hour (substrate use), 5 hr [4]: 2.48; 590 nm absorbance normalized to zero hour (substrate use), 6 hr [4]: 2.68; 590 nm absorbance normalized to zero hour (substrate use), 7 hr [4]: 2.86; 590 nm absorbance normalized to zero hour (substrate use), 8 hr [4]: 3.04; 590 nm absorbance normalized to zero hour (substrate use), 9 hr [4]: 3.36; 590 nm absorbance normalized to zero hour (substrate use), 10 hr [4]: 3.49; 590 nm absorbance normalized to zero hour (substrate use), 11 hr [4]: 3.91; 590 nm absorbance normalized to zero hour (substrate use), 0 hr [3]: 1.00; 590 nm absorbance normalized to zero hour (substrate use), 9 hr [3]: 3.36; 590 nm absorbance normalized to zero hour (substrate use), 10 hr [3]: 3.49; 590 nm absorbance normalized to zero hour (substrate use), 11 hr [3]: 3.91"
O=C(O)C[C@H](O)C(=O)O [L-Malic Acid],1.11,1.27,1.37,1.35,0.72,1.35,1.39,1.37,1.43,1.11,1.41,1.33,1.48,1.19,1.27,3.32,1.59,1.42,2.93,3.48,"590 nm absorbance normalized to zero hour (substrate use), 0 hr [1]: 1.00; Substrate use, 590 nm absorbance normalized to zero hour, 0 hr [1]: 1.00; 590 nm absorbance normalized to zero hour (substrate use), 0 hr [4]: 1.00; 590 nm absorbance normalized to zero hour (substrate use), 1 hr [4]: 1.48; 590 nm absorbance normalized to zero hour (substrate use), 2 hr [4]: 1.19; 590 nm absorbance normalized to zero hour (substrate use), 3 hr [4]: 1.27; 590 nm absorbance normalized to zero hour (substrate use), 4 hr [4]: 3.32; 590 nm absorbance normalized to zero hour (substrate use), 5 hr [4]: 1.59; 590 nm absorbance normalized to zero hour (substrate use), 6 hr [4]: 1.42; 590 nm absorbance normalized to zero hour (substrate use), 7 hr [4]: 2.93; 590 nm absorbance normalized to zero hour (substrate use), 8 hr [4]: 3.48; 590 nm absorbance normalized to zero hour (substrate use), 9 hr [4]: 1.72; 590 nm absorbance normalized to zero hour (substrate use), 10 hr [4]: 2.20; 590 nm absorbance normalized to zero hour (substrate use), 11 hr [4]: 2.05; 590 nm absorbance normalized to zero hour (substrate use), 0 hr [3]: 1.00; 590 nm absorbance normalized to zero hour (substrate use), 9 hr [3]: 1.72; 590 nm absorbance normalized to zero hour (substrate use), 10 hr [3]: 2.20; 590 nm absorbance normalized to zero hour (substrate use), 11 hr [3]: 2.05"
C[C@H](O)[C@H](O)[C@@H](O)[C@@H](O)C=O [L-Rhamnose],1.28,1.52,1.49,1.66,2.53,2.01,2.71,2.22,2.36,1.28,2.12,1.91,0.16,0.22,0.25,0.28,0.32,0.34,0.36,0.38,"590 nm absorbance normalized to zero hour (substrate use), 1 hr [2]: 0.16; 590 nm absorbance normalized to zero hour (substrate use), 2 hr [2]: 0.22; 590 nm absorbance normalized to zero hour (substrate use), 3 hr [2]: 0.25; 590 nm absorbance normalized to zero hour (substrate use), 4 hr [2]: 0.28; 590 nm absorbance normalized to zero hour (substrate use), 5 hr [2]: 0.32; 590 nm absorbance normalized to zero hour (substrate use), 6 hr [2]: 0.34; 590 nm absorbance normalized to zero hour (substrate use), 7 hr [2]: 0.36; 590 nm absorbance normalized to zero hour (substrate use), 8 hr [2]: 0.38; 590 nm absorbance normalized to zero hour (substrate use), 9 hr [2]: 0.41; 590 nm absorbance normalized to zero hour (substrate use), 10 hr [2]: 0.43; 590 nm absorbance normalized to zero hour (substrate use), 11 hr [2]: 0.46; 590 nm absorbance normalized to zero hour (substrate use), 9 hr [3]: 0.41; 590 nm absorbance normalized to zero hour (substrate use), 10 hr [3]: 0.43; 590 nm absorbance normalized to zero hour (substrate use), 11 hr [3]: 0.46"
